In the NIST ThermoML archive (doi:10.1016/j.jct.2013.03.013):
Several values for one entry are separate records, joined by “and”; a condition that tells them apart may be missing. Identical values can stand only once. ± gives the expanded uncertainty stated by the source.

Settings: Liquid, Vibrating wire viscometry

FCC(F)(F)F [1,1,1,2-tetrafluoroethane]
viscosity
Settings	1000 kPa	2000 kPa	3000 kPa	5000 kPa	10000 kPa	15000 kPa	20000 kPa	25000 kPa	30000 kPa
253.14 K	0.3564 ± 0.0086 mPa·s	–	–	0.3729 ± 0.0089 mPa·s	0.3937 ± 0.0093 mPa·s	0.4141 ± 0.0097 mPa·s	0.4329 ± 0.01 mPa·s	0.4553 ± 0.01 mPa·s	0.4776 ± 0.011 mPa·s
253.16 K	–	–	0.3626 ± 0.0087 mPa·s	–	0.3914 ± 0.0093 mPa·s	–	–	–	–
273.15 K	0.2713 ± 0.007 mPa·s	–	0.2791 ± 0.0072 mPa·s	0.2873 ± 0.0073 mPa·s	0.3052 ± 0.0077 mPa·s and 0.3031 ± 0.0076 mPa·s	0.3211 ± 0.008 mPa·s	0.3387 ± 0.0083 mPa·s	0.357 ± 0.0086 mPa·s	0.3759 ± 0.009 mPa·s
293.15 K	0.2115 ± 0.006 mPa·s	–	0.2177 ± 0.0061 mPa·s	0.2227 ± 0.0062 mPa·s	0.2398 ± 0.0065 mPa·s and 0.2412 ± 0.0065 mPa·s	0.2556 ± 0.0068 mPa·s	0.2725 ± 0.0071 mPa·s	0.287 ± 0.0073 mPa·s	0.3023 ± 0.0076 mPa·s
313.14 K	–	0.1653 ± 0.0053 mPa·s	0.1693 ± 0.0054 mPa·s	0.1758 ± 0.0055 mPa·s	0.1918 ± 0.0057 mPa·s and 0.1929 ± 0.0057 mPa·s	0.2068 ± 0.006 mPa·s	0.2228 ± 0.0062 mPa·s	0.236 ± 0.0064 mPa·s	0.2501 ± 0.0067 mPa·s
333.16 K	–	0.1247 ± 0.0047 mPa·s	0.1296 ± 0.0048 mPa·s	0.1373 ± 0.0049 mPa·s	0.1537 ± 0.0051 mPa·s and 0.1543 ± 0.0051 mPa·s	0.1703 ± 0.0054 mPa·s	0.1839 ± 0.0056 mPa·s	0.1966 ± 0.0058 mPa·s	0.2089 ± 0.006 mPa·s
353.15 K	–	–	–	0.1034 ± 0.0044 mPa·s	0.1246 ± 0.0047 mPa·s	–	–	–	–
353.16 K	–	–	0.0916 ± 0.0043 mPa·s	0.1032 ± 0.0044 mPa·s	0.124 ± 0.0047 mPa·s	0.1391 ± 0.0049 mPa·s	0.1535 ± 0.0051 mPa·s	0.1657 ± 0.0053 mPa·s	0.1779 ± 0.0055 mPa·s
